The record followed here is US20230033285A1, “Protease Inhibitors for Treatment of Coronavirus Infections” (The Scripps Research Institute, priority 2021, published 2023).

The experiment has as its system SARS-CoV-2. The experiment can be described thus: microbe, parasite or virus in culture. The experiment is classed as cell-based. The following applies: Severe acute respiratory syndrome coronavirus 2; HeLa-ACE2 cells infected with SARS-CoV-2, 24 h, immunofluorescence of infected cells; read-out: EC50, μM (Hela).
Take `CC(C)(C)C[C@H](NC(=O)C(=O)Nc1ccccc1F)C(=O)N[C@@H](C[C@@H]1CCCNC1=O)C(=O)CO` [Compound 87, N^1-(2-fluorophenyl)-N^2-((S)-1-(((S)-4-hydroxy-3-oxo-1-((S)-2-oxopiperidin-3-yl)butan-2-yl)amino)-4,4-dimethyl-1-oxopentan-2-yl)oxalamide]: the EC50 is < 0.05 µM. On to `CC(C)C[C@H](NC(=O)C(=O)Nc1ccccc1)C(=O)N[C@@H](C[C@@H]1CCNC1=O)C(=O)CO` [Compound 2, N^1-((S)-1-(((S)-4-hydroxy-3-oxo-1-((S)-2-oxopyrrolidin-3-yl)butan-2-yl)amino)-4-methyl-1-oxopentan-2-yl)-N^2-phenyloxalamide], for which the EC50 was > 1 µM. Consider `CC(=O)NC(CC(C)C(F)(F)F)C(=O)N1C[C@H]2[C@@H]([C@H]1C(=O)N[C@H](C#N)C[C@@H]1CCCNC1=O)C2(C)C` (stereo partly drawn) [Compound 131, (1R,2S,5S)-3-(2-acetamido-5,5,5-trifluoro-4-methylpentanoyl)-N-((S)-1-cyano-2-((S)-2-oxopiperidin-3-yl)ethyl)-6,6-dimethyl-3-azabicyclo[3.1.0]hexane-2-carboxamide], for which the EC50 fell in the range of 0.5 to 1 µM. For the compound `CCCCCCCCCCCCCCC(=O)OCC(=O)[C@H](C[C@@H]1CCNC1=O)NC(=O)[C@H](CC(C)C)NC(=O)C(=O)Nc1ccccc1F` [Compound 4, (S)-3-((S)-2-(2-((2-fluorophenyl)amino)-2-oxoacetamido)-4-methylpentanamido)-2-oxo-4-((S)-2-oxopyrrolidin-3-yl)butyl pentadecanoate], the EC50 is 0.2 to 0.5 µM. Turning to `Cc1ccccc1NC(=O)C(=O)N1C[C@@H]2CCC[C@@H]2[C@H]1C(=O)N[C@H](C[C@@H]1CCCNC1=O)C(=O)CO` [Compound 92, (1S,3aR,6aS)-N-((R)-4-hydroxy-3-oxo-1-((S)-2-oxopiperidin-3-yl)butan-2-yl)-2-(2-oxo-2-(o-tolylamino)acetyl)octahydrocyclopenta [c]pyrrole-1-carboxamide], the EC50 is > 1 µM. The figure for `O=C[C@H](C[C@@H]1CCNC1=O)NC(=O)[C@H](CC1CC1)NC(=O)c1cc(-c2ccccc2F)on1` [Compound 125, N-((S)-3-cyclopropyl-1-oxo-1-(((S)-1-oxo-3-((S)-2-oxopyrrolidin-3-yl)propan-2-yl)amino)propan-2-yl)-5-(2-fluorophenyl)isoxazole-3-carboxamide] is 0.05 to 0.2 µM; for `CC(C)C[C@H](NC(=O)C(=O)Nc1ccccc1F)C(=O)N[C@@H](C[C@@H]1CCCCNC1=O)C(=O)CO` [Compound 34, N^1-(2-fluorophenyl)-N^2-((S)-1-(((S)-4-hydroxy-3-oxo-1-((S)-2-oxoazepan-3-yl)butan-2-yl)amino)-4-methyl-1-oxopentan-2-yl)oxalamide] it is > 1 µM; for `N#C[C@H](C[C@@H]1CCCNC1=O)NC(=O)[C@@H]1[C@H]2CCC[C@H]2CN1C(=O)COc1ccc(Cl)cc1Cl` [Compound 61, (1S,3aR,6aS)-N-((S)-1-cyano-2-((S)-2-oxopiperidin-3-yl)ethyl)-2-(2-(2,4-dichlorophenoxy)acetyl)octahydrocyclo-penta[c]pyrrole-1-carboxamide] it is 0.5 to 1 µM. Next, `Cc1ccccc1NC(=O)C(=O)N[C@@H](Cc1ccccc1F)C(=O)N[C@@H](C[C@@H]1CCNC1=O)C(=O)CO` [Compound 20, N^1-((S)-3-(2-fluorophenyl)-1-(((S)-4-hydroxy-3-oxo-1-((S)-2-oxopyrrolidin-3-yl)butan-2-yl)amino)-1-oxopropan-2-yl)-N^2-(o-tolyl)oxalamide]: > 1 µM. Regarding `CC(C)(C)NC(=O)C(=O)N1C[C@H]2[C@@H]([C@H]1C(=O)N[C@H](C=O)C[C@@H]1CCCNC1=O)C2(C)C` [Compound 46, (1R,2S,5S)-3-(2-(tert-butylamino)-2-oxoacetyl)-6,6-dimethyl-N-((S)-1-oxo-3-((S)-2-oxopiperidin-3-yl)propan-2-yl)-3-azabicyclo[3.1.0]hexane-2-carboxamide], the EC50 is > 1 µM. `N#C[C@H](C[C@@H]1CCCNC1=O)NC(=O)[C@@H]1[C@H]2CCC[C@H]2CN1C(=O)C(=O)Nc1ccccc1F` [Compound 60, (1S,3aR,6aS)-N-((S)-1-cyano-2-((S)-2-oxopiperidin-3-yl)ethyl)-2-(2-((2-fluorophenyl)amino)-2-oxoacetyl)octahydrocyclopenta[c] pyrrole-1-carboxamide]: the 50% effective concentration (EC50) was in the range of 0.5 to 1 µM. With `CC(C)C[C@H](NC(=O)C(=O)Nc1ccccc1)C(=O)N[C@H](C=O)C[C@@H]1CCNC1=O` [Compound 37, N^1-((S)-4-methyl-1-oxo-1-(((S)-1-oxo-3-((S)-2-oxopyrrolidin-3-yl)propan-2-yl)amino)pentan-2-yl)-N^2-phenyloxalamide], the EC50 is > 1 µM. For `CC(C)(C)C[C@H](NC(=O)C(=O)Nc1cccc(Cl)c1)C(=O)N[C@@H](CC1CCCNC1=O)C(=O)CO` (stereo partly drawn) [Compound 102, N^1-(3-chlorophenyl)-N^2-((S)-1-(((S)-4-hydroxy-3-oxo-1-((S)-2-oxopiperidin-3-yl)butan-2-yl)amino)-4,4-dimethyl-l-oxopentan-2-yl)oxalamide], the EC50 was < 0.05 µM. The figure for `CC(C)(C)C[C@H](NC(=O)C(=O)Nc1ccccc1C(C)(C)C)C(=O)N[C@@H](C[C@@H]1CCCNC1=O)C(=O)CO` [Compound 100, N^1-(2-(tert-butyl)phenyl)-N^2-((S)-1-(((S)-4-hydroxy-3-oxo-1-((S)-2-oxopiperidin-3-yl)butan-2-yl)amino)-4,4-dimethyl-1-oxopentan-2-yl)oxalamide] is < 0.05 µM; for `O=C[C@H](C[C@@H]1CCCNC1=O)NC(=O)[C@@H]1[C@H]2CCC[C@H]2CN1C(=O)COc1ccc(Cl)cc1Cl` [Compound 45, (1S,3aR,6aS)-2-(2-(2,4-dichlorophenoxy)acetyl)-N-((S)-1-oxo-3-((S)-2-oxopiperidin-3-yl)propan-2-yl)octahydrocyclopenta[c]pyrrole-1-carboxamide] it is 0.05 to 0.2 µM. For `CCCCCCC(=O)OCC(=O)[C@H](C[C@@H]1CCNC1=O)NC(=O)[C@H](CC(C)C)NC(=O)c1cc2ccccc2[nH]1` [Compound 118, (S)-3-((S)-2-(1H-indole-2-carboxamido)-4-methylpentanamido)-2-oxo-4-((S)-2-oxopyrrolidin-3-yl)butyl heptanoate], the concentration for a half-maximal effect (EC50) fell in the range of 0.05 to 0.2 µM. On to `CC1(C)[C@@H]2[C@@H](C(=O)N[C@H](C#N)C[C@@H]3CCNC3=O)N(C(=O)C(=O)NC3(C(F)(F)F)CC3)C[C@@H]21` [Compound 65, (1R,2S,5S)-N-((S)-1-cyano-2-((S)-2-oxopyrrolidin-3-yl)ethyl)-6,6-dimethyl-3-(2-oxo-2-((1-(trifluoromethyl)cyclopropyl)amino)acetyl)-3-azabicyclo[3.1.0]hexane-2-carboxamide], for which the concentration for a half-maximal effect (EC50) is > 1 µM.

For the compound `CC(C)C[C@H](NC(=O)c1cc(-c2ccccn2)on1)C(=O)N[C@H](C=O)C[C@@H]1CCNC1=O` [Compound 128, N-((S)-4-methyl-1-oxo-1-(((S)-1-oxo-3-((S)-2-oxopyrrolidin-3-yl)propan-2-yl)amino)pentan-2-yl)-5-(pyridin-2-yl)isoxazole-3-carboxamide], the EC50 was > 1 µM.

What is called EC50 is the midpoint of the concentration-response curve.
